Reference: patent US9132177B2, “Composition of tumor-associated peptides and related anti-cancer vaccine for the treatment of gastric cancer and other cancers” (priority 2010, dated 2015)

System: CD8+ T cells
Test: In vitro priming of CD8+ T cells with pMHC/anti-CD28 coated beads, multimer staining readout
Assay type: cell-based, human
Conditions: HLA-A*24 healthy donors, three stimulations, A*2402 multimer+ CD8+
Description: In order to perform in vitro stimulations by artificial antigen presenting cells (aAPC) loaded with peptide-MHC complex (pMHC) and anti-CD28 antibody, we first isolated CD8 T cells from fresh HLA-A*24 leukapheresis products of healthy donors obtained from the Blood Bank Tuebingen.
CD8 T cells were either directly enriched from the leukapheresis product or PBMCs (peripheral blood mononuclear cells) were isolated first by using standard gradient separation medium (PAA, Cölbe, Germany). Isolated CD8 lymphocytes or PBMCs were incubated until use in T-cell medium (TCM) consisting of RPMI-Glutamax (Invitrogen, Karlsruhe, Germany) supplemented with 10% heat inactivated human AB serum (PAN-Biotech, Aidenbach, Germany), 100 U/ml Penicillin/100 μg/ml Streptomycin (Cambrex, Cologne, Germany), 1 mM sodium pyruvate (CC Pro, Oberdorla, Germany), 20 μg/ml Gentamycin (Cambrex). […] Isolation of CD8+ lymphocytes was performed by positive selection using CD8 MicroBeads (Miltenyi Biotec, Bergisch-Gladbach, Germany).
800.000 beads/200 μl were coated in 96-well plates in the presence of 600 ng biotin anti-CD28 plus 200 ng relevant biotin-pMHC (high density beads). Stimulations were initiated in 96-well plates by co-incubating 1×10^6 CD8+ T cells with 2×10^5 washed coated beads in 200 μl TCM supplemented with 5 ng/ml IL-12 (PromoCell) for 3-4 days at 37° C. Half of the medium was then exchanged by fresh TCM supplemented with 80 U/ml IL-2 and incubating was continued for 3-4 days at 37° C. This stimulation cycle was performed for a total of three times. […] For analysis, a BD LSRII SORP cytometer equipped with appropriate lasers and filters was used. Peptide specific cells were calculated as percentage of total CD8+ cells. Evaluation of multimeric analysis was done using the FlowJo software (Tree Star, Oregon, USA). In vitro priming of specific multimer+ CD8+ lymphocytes was detected by appropriate gating and by comparing to negative control stimulations.

| Sequence | Positive donors/donors tested [%] | Positive wells/wells tested [%] |
| --- | --- | --- |
| AYLVYTDRL (listed as Homo sapiens) [PPAP2C-001] | 100 | 54 |
| FYISPVNKL (listed as Homo sapiens) [AVL9-001] | 100 | 50 |
| HYKPTPLYF (listed as Homo sapiens) [SMC4-001] | 75 | 9 |
| LYQILQGIVF (listed as Homo sapiens) [CDC2-001] | 88 | 28 |
| NYLLYVSNF (listed as Homo sapiens) [MST1R-001] | 50 | 14 |
| NYLPFIMEL (listed as Homo sapiens) [UCHL5-001] | 75 | 14 |
| RFLSGIINF (listed as Homo sapiens) [NUF2-002] | 50 | 4 |
| SYIDVLPEF (listed as Homo sapiens) [MET-006] | 63 | 22 |
| SYIIDPLNL (listed as Homo sapiens) [PROM1-001] | 83 | 26 |
| SYNPLWLRI (listed as Homo sapiens) [ASPM-002] | 63 | 31 |
| TYGNLLDYL (listed as Homo sapiens) [ABL1-001] | 50 | 13 |
| VWSDVTPLTF (listed as Homo sapiens) [MMP11-001] | 33 | 11 |
| VYGIRLEHF (listed as Homo sapiens) [NUF2-001] | 100 | 25 |
| VYIEKNDKL (listed as Homo sapiens) [ERBB3-001] | 83 | 15 |
| YYNAAGFNKL (listed as Homo sapiens) [UQCRB-001] | 100 | 38 |

System: anti-survivin T-cell response
Test: Phase I/II vaccination study, T cell response (IFN-g ELISPOT, +/-ICS)
Assay type: in vivo, human
Conditions: among the 16 reacting patients

| Sequence | patients with induction of an anti-survivin T-cell response upon vaccination |
| --- | --- |
| TLGEFLKLDRERAKN (listed as Homo sapiens) [IMA-BIR-002] | 12 |

Same assay, conditions: of the 19 patients, prostate carcinoma, s.c. vaccination

| Sequence | patients who reacted to the peptide (IFN-g ELISPOT, +/-ICS) |
| --- | --- |
| TLGEFLKLDRERAKN (listed as Homo sapiens) [IMA-BIR-002] | 16 |

System: HLA-DR broad antigens (HLA-DR1 to DR7)
Test: ProImmune REVEAL MHC:peptide in vitro binding assay
Parameters: species or system human
Conditions: HLA-DR1, 3, 4 and 11; result in words
Procedure: The ProImmune REVEAL™ technology employs in vitro HLA-DR assembly assays to determine the on-rates for the MHC:peptide complex as one major determinant of the binding constant of individual peptides. The assay was performed by ProImmune (Oxford, UK). At a fixed time point, the amount of intact MHC:peptide complexes is measured and compared with the amount for a pass/fail control (relative weak binder). A strong, promiscuous HLA-DR binder is included as positive control. Values indicate amount of binding for the individual peptides and HLA-DR molecules relative to the pass/fail control.
In this assay, binding was compared to that of a pass/fail control binder, and to a positive control peptide for each HLA-DR antigen.

| Sequence | in vitro binding to HLA-DR |
| --- | --- |
| TLGEFLKLDRERAKN (listed as Homo sapiens) [IMA-BIR-002] | promiscuous binding |
